A word on the CC50: it is the concentration giving 50% cytotoxicity. For orientation: viability means a read-out of living cells in per cent, often relative to untreated cells. By IC50 is commonly meant the concentration that inhibits the measured activity by half. The EC50 is the midpoint of the concentration-response curve.

Data on five compounds can be found in paper PMC10813298, “Evidence of Guanidines Potential against Leishmania (Viannia) braziliensis: Exploring In Vitro Effectiveness, Toxicities and of Innate Immunity Response Effects” (Biomolecules, 2023).

Series [1] can be described thus: Cytotoxicity against RAW 264.7 macrophages (MTT). The series is classed as cell-based, murine. As to conditions: mouse, RAW 264.7 macrophages, pH 7.2, RAW 264.7 cells. Here is the method: Murine macrophage cell line RAW 264.7 was used in this study. The cells were cultured in 75 cm^2 cell culture flasks (Corning Glass Workers, New York, NY, USA) using DMEM medium with a pH of 7.2, supplemented with 10% FBS and 1% antibiotic solution (containing 100 U/mL penicillin and 100 μg/mL streptomycin). The cells were maintained in an incubator at a temperature of 37 °C with 5% CO2. The spikes were performed after the cells reached complete confluence, characterized by the formation of a monolayer of cells around 48 h to 72 h after packaging.
(§1) In this study, we utilized the RAW 264.7 macrophages line (obtained from ATCC: code TIB-71™),human embryonic kidney cell line HEK-293 (obtained from ATCC: code CRL-1573™)and two human cancer cell cultures: the colon carcinoma cell line CaCo-2 and the adenocarcinomic human alveolar basal epithelial cell A549 (also obtained from ATCC: codesHTB-37™ and CCL-185™).These cell lines were cultured in Dulbecco’s modified Eagle medium (DMEM) from Gibco by Life Technologies (LifeTech Austria, Vienna, Austria). The growth medium was supplemented with 5% fetal bovine serum (FBS) from Gibco by Life Technologies and 1% penicillin-streptomycin obtained from Sigma-Aldrich (Vienna, Austria). The cells were maintained at 37 °C with 5% CO2 in a humidified incubator, and regular checks for mycoplasma contamination were carried out.
(§2) For experimental purposes, the cells were seeded into 96-well plates at a density of 2 × 10^4 cells/mL, with each well containing 100 µL of the cell suspension. The cells were allowed to adhere for 24 h. Subsequently, they were exposed to 100 µL of the test compounds, which were diluted in DMEM, with concentrations ranging from 2 to 600 µmol/L. The stock solutions of these compounds were prepared in water with 10% (v/v) dimethyl sulfoxide (DMSO) and stored at 4 °C.
(§3) To assess cell viability after 72 h of exposure to the compounds, we employed a 3-(4,5-dimethylthiazol-2-yl)-2,5-diphenyltetrazolium bromide (MTT)-based vitality assay kit (EZ4U, Biomedica, Vienna, Austria). Briefly, we added 20 µL of the EZ4U assay solution to each well and incubated the plates in the dark for 2 h. Subsequently, we measured the absorbance using a microplate reader at 450 nm, with 620 nm as a reference to reduce unspecific background values. For reliability, all experiments were conducted three times with triplicate samples.
The different mean concentrations for promastigotes (IC50) and macrophages (CC50) were calculated using nonlinear regression. For comparisons between groups, ANOVA analysis of variance was performed followed by Tukey’s test in a statistical program, taking the p-value < 0.05 as the maximum level of statistical significance.

In a further series the test system is HEK-293. As to the kind of experiment: Cell toxicity, MTT-based EZ4U assay, HEK-293. Set-up: species or system human. As to conditions: HEK-293, 1.56–500 µmol/L. Here is the method: as §1
(§4) For experimental purposes, the cells were seeded into 96-well plates at a density of 2 × 10^4 cells/mL, with each well containing 100 µL of the cell suspension. The cells were allowed to adhere for 24 h. […] The stock solutions of these compounds were prepared in water with 10% (v/v) dimethyl sulfoxide (DMSO) and stored at 4 °C.
as §3
On the technique in general: Tetrazolium dyes change colour on reduction, which living cells bring about.

A short description of series [2]: Cell toxicity, MTT-based EZ4U assay, HEK-293. As to conditions: human, HEK-293 cells (embryonic kidney), HEK, 72 h. Set-up: species or system human. As for the experimental part: as §1, §4, §3
A short description of series [3]: Cell toxicity, MTT-based EZ4U assay, CaCo-2. As to conditions: human, CaCo-2 cells (colon carcinoma); for viability at 72 h, 2.34 µmol/L: CACO2, 2.34 µmol/L; for viability at 72 h, 4.6875 µmol/L: CACO2, 4.6875 µmol/L; for viability at 72 h, 9.375 µmol/L: CACO2, 9.375 µmol/L; for viability at 72 h, 18.75 µmol/L: CACO2, 18.75 µmol/L; for viability at 72 h, 37.5 µmol/L: CACO2, 37.5 µmol/L; for viability at 72 h, 75 µmol/L: CACO2, 75 µmol/L; for viability at 72 h, 150 µmol/L: CACO2, 150 µmol/L; for viability at 72 h, 300 µmol/L: CACO2, 300 µmol/L; for viability at 72 h, 600 µmol/L: CACO2, 600 µmol/L. Here is the method: as §1, §2, §3

Another series concerns right atrium. As to the kind of experiment: Chronotropic effect on isolated right atrium. Further details: species or system guinea pig. The note with it: for effect on heart rate (chronotropic): isolated guinea pig heart muscle preparation, up to 100 µmol/L. As for the experimental part:
Guinea pigs of either sex weighing between 250 or 380 g were utilized in this study. The animals were housed in a controlled environment in an air-conditioned room, maintaining a temperature of 22 to 24 °C and a relative humidity of 50% to 60%. A 12 h light–dark cycle was maintained.
On the day of the experiments, the animals were euthanized via cervical dislocation. The heart, aorta, pulmonary artery, and ileum were surgically removed and immersed in Krebs–Henseleit solution, with the following composition: NaCl 144.9 mM, KCl 4.73 mM, CaCl2 3.2 mM, MgSO4 1.18 mM, NaHCO3 24.9 mM, KH2PO4 1.18 mM, and glucose 10 mM, with the pH maintained at 7.2–7.4. This solution was continuously aerated with a mixture of 95% O2 and 5% CO2.
Papillary muscles were isolated from the right ventricle of the heart and meticulously cleared of Purkinje fibers to prevent spontaneous activity. To ensure adequate oxygen supply, only muscles with a diameter less than 0.87 mm were used. The right atrium was also dissected for assessment of chronotropic activity. Both the aorta and pulmonary artery were cleaned and cut into 5 mm rings, while the ileum was sectioned into pieces measuring 1 to 2 cm.
One end of the dissected tissues was securely tied with silver wire for attachment to a tissue holder, while the other end was connected to a force transducer (Transbridge™, 4-Channel Transducer Amplifier, World Precision Instruments, Sarasota, FL, USA). For contractile measurements, the terminal ileum was stimulated with 60 mM KCl, and the pulmonary artery and aorta rings were exposed to a 90 mM KCl solution. Papillary muscles were electrically stimulated using an Anapulse Stimulator Model 301-T and an Isolation Unit Model 305-1 (WPI, Hamden, CT, USA) with rectangular pulses of 3 ms duration at a frequency of 1 Hz. The amplitude of the stimulation pulse was maintained at 10% above the threshold level. To optimize contractility, a constant resting tension was applied throughout the experiment: 3.9 mN for papillary muscle, 4.9 mN for terminal ileum, 10.4 mN for the right atrium, and 19.6 mN for aorta and pulmonary artery rings.
Following a 30 min control period, different concentrations of test compounds were cumulatively added to the bath solution every 45 min until a stable effect was achieved. The responses were recorded using a chart recorder (BD 112 Dual Channel, Kipp &Zonen, PO Box 507, 2624 BC, Delft, Holland) for subsequent evaluation. Stock concentrations of the test compounds were prepared using DMSO. To account for any potential DMSO effect, control experiments were conducted with the solvent alone, and the observed effects were subtracted from the responses elicited by the test compounds.

The subject of series [4] is L. (L.) infantum promastigotes. Further details: method as in PMID 36977142. As to conditions: read-out: IC50 antipromastigote activity; cited from earlier work.

In turn, `O=C(/N=C(/NCc1ccccc1)Nc1ccc([N+](=O)[O-])cc1)c1ccccc1` [LQOF-G1, (Z)-N-benzoyl-N-benzyl-N-(4-nitrophenyl)guanidine] returned a CC50 at 72 h in series [1] of 147 ± 2 µM. Further, the “toxic effects on cell viability” value in the series with HEK-293 is “No toxic effects”. Moreover, in series [2], the viability at 72 h, 2.34 µmol/L amounted to 99 ± 10%; the viability at 72 h, 4.6875 µmol/L was 104 ± 11%; the viability at 72 h, 9.375 µmol/L came to 125 ± 8.1%; the viability at 72 h, 18.75 µmol/L was determined as 125 ± 9.4%. In series [2], the viability at 72 h, 37.5 µmol/L was found to be 100 ± 11%; the viability at 72 h, 75 µmol/L stood at 115 ± 7%; the viability at 72 h, 150 µmol/L was 111 ± 5%; the viability at 72 h, 300 µmol/L worked out at 117 ± 6%. Further, in series [2], the viability at 72 h, 600 µmol/L was 115 ± 10%. In addition, in series [3], the viability at 72 h, 2.34 µmol/L is 106 ± 8%; the viability at 72 h, 4.6875 µmol/L worked out at 109 ± 5%; the viability at 72 h, 9.375 µmol/L was found to be 109 ± 7%; the viability at 72 h, 18.75 µmol/L was found to be 109 ± 10%. In addition, in series [3], the viability at 72 h, 37.5 µmol/L was found to be 97 ± 13%; the viability at 72 h, 75 µmol/L came to 99 ± 7%; the viability at 72 h, 150 µmol/L came out at 107 ± 3%; the viability at 72 h, 300 µmol/L amounted to 103 ± 10%. For the same compound, in series [3], the viability at 72 h, 600 µmol/L turned out to be 119 ± 5%. Further, the “effect on heart rate (chronotropic)” value with right atrium is on record as “slight decrease in heart rate”.
Turning to `O=C(/N=C(/NCc1ccccc1)Nc1ccc(Br)cc1)c1ccccc1` [LQOF-G2, (Z)-N-benzoyl-N-benzyl-N-(4-bromophenyl)guanidine], the IC50 in series [4] is 12.7 µM. Further, in series [1], half-maximal cytotoxicity (CC50 at 72 h) was put at 164 ± 2.9 µM. In addition, in the series with HEK-293, the “toxic effects on cell viability” value is “No toxic effects”. Besides, in series [2], the viability at 72 h, 2.34 µmol/L was 104 ± 2.9%; the viability at 72 h, 4.6875 µmol/L stood at 109 ± 9.6%; the viability at 72 h, 9.375 µmol/L was 103 ± 13.5%; the viability at 72 h, 18.75 µmol/L amounted to 108 ± 8.6%. In addition, in series [2], the viability at 72 h, 37.5 µmol/L was 96 ± 2.9%; the viability at 72 h, 75 µmol/L was 99 ± 8.5%; the viability at 72 h, 150 µmol/L was determined as 145 ± 3.3%; the viability at 72 h, 300 µmol/L turned out to be 123 ± 7.1%. The viability at 72 h, 600 µmol/L in series [2] turned out to be 133 ± 8.4%. Also, in series [3], the viability at 72 h, 2.34 µmol/L amounted to 106 ± 3.6%; the viability at 72 h, 4.6875 µmol/L worked out at 109 ± 13.6%; the viability at 72 h, 9.375 µmol/L was determined as 109 ± 14.7%; the viability at 72 h, 18.75 µmol/L is 103 ± 5.7%. For the same compound, in series [3], the viability at 72 h, 37.5 µmol/L was found to be 97 ± 4.9%; the viability at 72 h, 75 µmol/L turned out to be 99 ± 6.4%; the viability at 72 h, 150 µmol/L stood at 107 ± 5.3%; the viability at 72 h, 300 µmol/L turned out to be 103 ± 6.6%. Further, in series [3], the viability at 72 h, 600 µmol/L came to 119 ± 8.8%. Besides, the EC50 with right atrium (Cavia porcellus, isolated guinea pig right atrium, 3 to 100 µmol/L, read-out: EC50 reduction of heart rate activity) worked out at 69 µM.
Take `CC(C)(C)c1ccc(N/C(=N\C(=O)c2ccccc2)NCc2ccccc2)cc1` [LQOF-G6, (Z)-N-benzoyl-N-benzyl-N-(4-tert-butylphenyl)guanidine]: the IC50 in series [4] was 24.4 µM. The compound further registered a CC50 at 72 h in series [1] of 154 ± 2.3 µM.
Consider `O=C(/N=C(/NCc1ccccc1)Nc1ccc(I)cc1)c1ccccc1` [LQOF-G7, (Z)-N-benzoyl-N-benzyl-N-(4-iodophenyl)guanidine], for which the IC50 in series [4] is 23.6 µM. Besides, in series [1], the midpoint of cytotoxicity, the CC50 at 72 h, lay at 183 ± 3.1 µM. In addition, the “effect on heart rate (chronotropic)” value in the series on right atrium is “slight decrease in heart rate”.
Compound `O=C(/N=C(/NCc1ccc(Cl)cc1Cl)Nc1ccc(Br)cc1)c1ccccc1` [LQOF-G32, (Z)-N-benzoyl-N-(2,4-di-chlorobenzyl)-N-(4-bromophenyl)guanidine] returned a CC50 at 72 h in series [1] of 275.9 ± 2.4 µM. Further, the “toxic effects on cell viability” value in the series on HEK-293 is given as “No toxic effects”. Also, in series [2], the viability at 72 h, 2.34 µmol/L amounted to 93 ± 5.3%; the viability at 72 h, 4.6875 µmol/L worked out at 95 ± 12.7%; the viability at 72 h, 9.375 µmol/L came to 89 ± 7.9%; the viability at 72 h, 18.75 µmol/L worked out at 94 ± 8.9%. Besides, in series [2], the viability at 72 h, 37.5 µmol/L is 91 ± 6.9%; the viability at 72 h, 75 µmol/L came out at 91 ± 13.9%; the viability at 72 h, 150 µmol/L was 94 ± 12.7%; the viability at 72 h, 300 µmol/L turned out to be 118 ± 13.9%. In addition, the viability at 72 h, 600 µmol/L in series [2] was 185 ± 10.1%. Besides, in series [3], the viability at 72 h, 2.34 µmol/L came to 138 ± 8.4%; the viability at 72 h, 4.6875 µmol/L was determined as 123 ± 11.4%; the viability at 72 h, 9.375 µmol/L is 117 ± 7.3%; the viability at 72 h, 18.75 µmol/L turned out to be 116 ± 9.7%. In series [3], the viability at 72 h, 37.5 µmol/L was 79 ± 6.4%; the viability at 72 h, 75 µmol/L came to 53 ± 14.8%; the viability at 72 h, 150 µmol/L came out at 45 ± 10.4%; the viability at 72 h, 300 µmol/L turned out to be 45 ± 15.9%. In addition, in series [3], the viability at 72 h, 600 µmol/L is 66 ± 12.3%. Besides, in the series on right atrium, the “effect on heart rate (chronotropic)” value is “slight decrease in heart rate”.
